{"source": "patent US20130123282A1", "about": "“SOLID STATE FORMS OF LINAGLIPTIN” (priority 2011, published 2013)", "assay_type_in_all_cases": "physicochemical", "key": {"[1]": {"experiment": "Polymorphic stability on storage under different relative humidity levels (XRD)", "from_the_text": "In addition to the properties mentioned above, Form XXII is particularly important as it can be obtained and exist at ambient conditions as single, pure phase. […] is also particularly advantageous, for example, in being non-hygroscopic and polymorphic stable under different relative humidity levels.\n(§1) In addition to the properties mentioned above, Form XXII is particularly important as it can be obtained and exist at ambient conditions as single, pure phase. […] Form XXII is also non-hygroscopic and polymorphic stable under different relative humidity levels.\nThe XRD analyses were performed on ARL (SCINTAG) powder X-Ray diffractometer model X′TRA equipped with a solid state detector. Copper radiation of 1.5418 Å was used. Scanning parameters: range: 2-40 degrees two-theta; scan mode: continuous scan; step size: 0.05°, and a rate of 3 deg/min. The position of the silicon (111) peak was corrected to be 28.45 degrees two theta. The positions of the XRD peaks for the Linagliptin forms were corrected respectively. […]"}, "[2]": {"experiment": "Hygroscopicity according to Ph.Eur. chapter 5.11", "details": "non-hygroscopic = less than 0.2% (w/w) absorption of water, Ph.Eur. 5.11", "from_the_text": "As used herein, and unless stated otherwise, the term “non-hygroscopic” in relation to crystalline Linagliptin refers to less than 0.2% (w/w) absorption of water, for example atmospheric water, by the crystalline Linagliptin, as determined according to Ph.Eur. chapter 5.11 (“Hygroscopicity”)"}, "[3]": {"experiment": "Polymorphic stability when slurried in solvents", "details": "slurrying in different solvents, such as acetonitrile and ethanol", "from_the_text": "as §1"}}, "data": [{"compound": "CC#CCn1c(N2CCC[C@@H](N)C2)nc2c1c(=O)n(Cc1nc(C)c3ccccc3n1)c(=O)n2C", "note": "[Form X, Linagliptin]", "values": [{"measurement": "solid form found by XRD after exposure to humidity", "setting": "[1]; exposed to 100% relative humidity for 7 days", "value": "Linagliptin form XII"}, {"measurement": "polymorphic transformation on storage", "setting": "[1]; stored for 7 days at room temperature under 0-80% relative humidity", "value": "no polymorphic transformation is observed"}]}, {"compound": "CC#CCn1c(N2CCC[C@@H](N)C2)nc2c1c(=O)n(Cc1nc(C)c3ccccc3n1)c(=O)n2C", "note": "[Form XXII, Linagliptin]", "values": [{"measurement": "polymorphic transformation on storage", "setting": "[1]; stored for 7 days at room temperature under 0-100% relative humidity", "value": "no polymorphic transformation is observed"}, {"measurement": "hygroscopicity", "setting": "[2]", "value": "non-hygroscopic"}, {"measurement": "polymorphic transformation on slurrying", "setting": "[3]", "value": "do not transform to other forms"}]}]}
